In US4208514A, “4(3H)-Oxobenzo-2,1,3-thiadiazine-2,2-dioxides” (The Dow Chemical Company, priority 1976, dated 1980):

Columns and labels:
Assay type in all cases: in vivo
[1] = test system: Pig Weed; assay: General post-emergent herbicidal activity at 10 lbs/acre, Pig Weed; details: post-emergence, 336 h
Source text: (§1) Various species of plants, both broadleaf weeds and valuable crops, were planted in beds of good agricultural soil in a greenhouse. After the plants had emerged and grown to a height of about 2-6 inches, a portion of the plants were sprayed with an aqueous mixture, made by mixing a selected active ingredient and […], […] Other portions of the plants were left untreated to serve as controls. In each test the active ingredient was a 3-methylethyl-1H-2,1,3-benzothiadiazin-4(3H)-one-2,2-dioxide having a substituent in the one position according to the invention.
(§2) After a period of 2 weeks the selective effect of the test ingredient on the plants was evaluated by a comparison with the control group of plants.

[2] = test system: Annual Morning Glory; assay: General post-emergent herbicidal activity at 10 lbs/acre, Annual Morning Glory; details: Ipomoea, post-emergence, 336 h
Source text: as §1, §2

[3] = test system: Nutsedge; assay: General post-emergent herbicidal activity at 10 lbs/acre, Nutsedge; details: Cyperus, post-emergence, 336 h
Source text: as §1, §2

[4] = test system: Velvet Leaf; assay: General post-emergent herbicidal activity at 10 lbs/acre, Velvet Leaf; details: post-emergence, 336 h
Source text: as §1, §2

[5] = test system: Velvet Leaf; assay: Selective post-emergent greenhouse test, Velvet Leaf; details: post-emergence, 336 h, 2 weeks; for pest or weed control at 358.672 g/ha: 0.32 lbs/acre; for pest or weed control at 706.135 g/ha: 0.63 lbs/acre
Source text: (§3) So as to illustrate clearly the phytotoxic properties of the various active ingredients of the present invention, a group of controlled greenhouse experiments is described below.
(§4) Various species of plants, both broadleaf weeds and valuable crops, were planted in beds of good agricultural soil in a greenhouse. After the plants had emerged and grown to a height of about 2-6 inches, a portion of the plants were sprayed with an aqueous mixture, made by mixing a selected active ingredient and emulsifier or dispersant with water to provide solution containing 250 or 125 ppm active ingredient, employing sufficient amounts of the treating composition to provide low post emergent application rates of about 0.63 or 0.32 pounds per acre. Other portions of the plants were left untreated to serve as controls. In each test the active ingredient was a 3-methylethyl-1H-2,1,3-benzothiadiazin-4(3H)-one-2,2-dioxide having a substituent in the one position according to the invention.
as §2

[6] = test system: Jimson Weed; assay: Selective post-emergent greenhouse test, Jimson Weed; details: post-emergence, 336 h, 2 weeks; for pest or weed control at 358.672 g/ha: 0.32 lbs/acre; for pest or weed control at 706.135 g/ha: 0.63 lbs/acre
Source text: as §3, §4, §2

[7] = test system: Cotton; assay: Selective post-emergent greenhouse test, Cotton (crop injury); details: Gossypium hirsutum, post-emergence, 336 h, post-emergent, 2 weeks, crop, read-out: % Control Cotton; for plant injury at 358.672 g/ha: 0.32 lbs/acre; for plant injury at 706.135 g/ha: 0.63 lbs/acre
Source text: as §3, §4, §2

[8] = test system: Soybean; assay: Selective post-emergent greenhouse test, Soybean (crop injury); details: Glycine max, post-emergence, 336 h, 2 weeks, read-out: % Control Soybean; for plant injury at 358.672 g/ha: 0.32 lbs/acre; for plant injury at 706.135 g/ha: 0.63 lbs/acre
Source text: as §3, §4, §2

SMILES	pest or weed control at 11208.5 g/ha [1] [%]	pest or weed control at 11208.5 g/ha [2] [%]	pest or weed control at 11208.5 g/ha [3] [%]	pest or weed control at 11208.5 g/ha [4] [%]	pest or weed control at 358.672 g/ha [5] [%]	pest or weed control at 706.135 g/ha [5] [%]	pest or weed control at 358.672 g/ha [6] [%]	pest or weed control at 706.135 g/ha [6] [%]	plant injury at 358.672 g/ha [7] [%]	plant injury at 706.135 g/ha [7] [%]	plant injury at 358.672 g/ha [8] [%]	plant injury at 706.135 g/ha [8] [%]
CCCCS(=O)(=O)N1c2ccccc2C(=O)N(C(C)C)S1(=O)=O [SO2 (CH2)3 CH3, 1H-2,1,3-Benzothiadiazin-4(3H)-one: 1-Butylsulfonyl-3-(1-methylethyl)-; 2,2-dioxide]	100	100	85	100								
CC(=O)N1c2ccccc2C(=O)N(C(C)C)S1(=O)=O [COCH3, 1H-2,1,3-Benzothiadiazin-4(3H)-one: 1-acetyl-3-(1-methyl-ethyl)-; 2,2-dioxide]	100	100	95	100	100	100	60	60	5	0	0	0
CC=CC(=O)N1c2ccccc2C(=O)N(C(C)C)S1(=O)=O [COCHCHCH3, 1H-2,1,3-Benzothiadiazin-4(3H)-one: 3-(1-methylethyl)-1-(1-oxo-2-butenyl)-;2,2-dioxide]	100	100	90	100	70	100		100	0	0	0	0
CCS(=O)(=O)N1c2ccccc2C(=O)N(C(C)C)S1(=O)=O [SO2 CH2 CH3, 1H-2,1,3-Benzothiadiazin-4(3H)-one; 1-Ethylsulfonyl-3-(1-methylethyl)-; 2,2-dioxide]	100	100	85	100								
CC(C)N1C(=O)c2ccccc2N(S(=O)(=O)C(C)C)S1(=O)=O [SO2 CH(CH3)2, 1H-2,1,3-Benzothiadiazin-4(3H)-one: 3-(1-methylethyl)-1-(1-methylethylsulfonyl)-; 2,2-dioxide]	100	100	85	100								
CC(C)OC(=O)N1c2ccccc2C(=O)N(C(C)C)S1(=O)=O [CO2 CH(CH3)2]	0	50	70	100								
CCCCOC(=O)N1c2ccccc2C(=O)N(C(C)C)S1(=O)=O [CO2 (CH2)3 CH3]	100	100	95	100								
CCCC(=O)N1c2ccccc2C(=O)N(C(C)C)S1(=O)=O [COCH2 CH2 CH3]	100	100	90	100								
CC(C)N1C(=O)c2ccccc2N(S(C)(=O)=O)S1(=O)=O [SO2 CH3, 1H-2,1,3-Benzothiadiazin-4(3H)-one: 3-(1-methylethyl)-1-methylsulfonyl-; 2,2-dioxide]	100	100	20	100								
CC(C)N1C(=O)c2ccccc2N(C(=O)CCl)S1(=O)=O [COCH2 Cl, 1-(2-Chloroacetyl)-3-(1-methylethyl)-1H-2,1,3-benzothiadiazin-4(3H)-one-2,2-Dioxide]	100	100	100	100	70	100	100	100	20	70	10	10
COC(=O)N1c2ccccc2C(=O)N(C(C)C)S1(=O)=O [CO2 CH3]	100	100	50	100	100	100	100	100	0	10	0	0
CC(Cl)C(=O)N1c2ccccc2C(=O)N(C(C)C)S1(=O)=O (stereo not shown) [COCHClCH3, 1H-2,1,3-Benzothiadiazin-4(3H)-one: 1-(2-chloro-1-oxopropyl)-3-(1-methylethyl)-; 2,2-dioxide]	100	100	95	100	100	100	100	100	0	100	0	0
C=CCOC(=O)N1c2ccccc2C(=O)N(C(C)C)S1(=O)=O [CO2 CH2 CHCH2, 1H-2,1,3-Benzothiadiazine-1-carboxylic Acid: 3,4-dihydro-3-(1-methylethyl)-4-oxo-, 2-Propenyl Ester, 2,2-Dioxide]	100	100	95	100	100	100	100	100	50	50	0	0
CCSC(=O)N1c2ccccc2C(=O)N(C(C)C)S1(=O)=O [COSCH2 CH3, 1H-2,1,3-Benzothiadiazine-1-carbothioic acid: 3,4-Dihydro-3-(1-methylethyl)-4-oxo, S-ethyl ester; 2,2-dioxide]	100	100	95	100	100	100	100	100	100	100	0	0
CCCS(=O)(=O)N1c2ccccc2C(=O)N(C(C)C)S1(=O)=O [SO2 CH2 CH 2 CH3, 1H-2,1,3-Benzothiadiazin-4(3H)-one: 3-(1-methylethyl)-1-propylsulfonyl-; 2,2-dioxide]	100	100	90	100								
CC(C)N1C(=O)c2ccccc2N(S(=O)(=O)CCl)S1(=O)=O [SO2 CHCl, 1H-2,1,3-Benzothiadiazin-4(3H)-one: 1-chloromethylsulfonyl-3-(1-methylethyl)-; 2,2-dioxide]	100	80	90	100								
COCC(=O)N1c2ccccc2C(=O)N(C(C)C)S1(=O)=O [COCH2 OCH3, 1H-2,1,3-Benzothiadiazin-4(3H)-one: 1-methoxyacetyl-3-(1-methylethyl)-; 2,2-dioxide]	100	100	90	100	80	100	100	100	0	0	0	0
CCCOC(=O)N1c2ccccc2C(=O)N(C(C)C)S1(=O)=O [CO2 CH2 CH2 CH3]	100	100	90	100								
CCN(CC)S(=O)(=O)N1c2ccccc2C(=O)N(C(C)C)S1(=O)=O [SO2 N(C2 H5)2]	100	100	60	100								
